# Laboratory results published in publication PMC4526917 (Journal of Experimental Botany, 2015).
# Peptide text beside a SMILES is read from it.
# Legend:
# maize pollen tube = test system: maize pollen tube; design: method as in Amien et al., 2010; conditions: ref Amien et al., 2010; cited from earlier work
# maize pollen tubes = test: Pollen tube burst assay; assay type: cell-based, Zea mays; conditions: for maize pollen tube burst: mean ±SD
# Protocol: The assay was applied as described ([Woriedh et al., 2013]). Briefly, freshly collected pollen was immediately distributed onto Petri dishes containing droplets of 10 µL PGM at different pH values. Pollen tubes started to burst or to grow after about 10min. Pollen tubes were subjected to further studies only if germination rates exceeded 80%. After optimization, PGM at pH 5 was applied to all pollen tube assays. A 10 µL solution of the above peptides or acetonitrile as a negative control was added to each droplet of germinated pollen using a Cell-TramH Air pump (Eppendorf) and a glass micropipette. During this assay, droplets were observed using an Eclipse TE2000 inverted microscope (Nikon) equipped with a 1.4 Megapixel digital AxioCam MRm camera (black and white) and AxioVision digital image processing software (Release 4.8).
# F. graminearum conidia = assay type: cell-based, Fusarium graminearum; conditions: for fungal germination in Fusarium / conidia that did not germinate at all: 90 µM peptide; for fungal germination in Fusarium: 24 hours in PGM, absorbance at 595 nm, germination above 60% taken as threshold; for conidia that did not germinate at all: microscopy; for concentration giving complete suppression of conidia germination: PGM, 24h
# [1] = test system: F. graminearum conidia and mycelia; assay type: cell-based, Fusarium graminearum; conditions: 90 µM peptide, after 6h; microscopy
# [2] = test system: F. graminearum conidia and mycelia; assay type: cell-based, Fusarium graminearum; conditions: NBT staining of superoxide; 60 µM peptide (Fig. 6)
# U. maydis spores [3] = assay type: cell-based, Ustilago maydis
# U. maydis spores [4] = conditions: for inhibition of germination of Ustilago spores: 24 h, 90 μM
# U. maydis spores [5] = assay type: cell-based, Ustilago maydis; remark: listed apart in the source
compound,measurement,setting,value
"AFP2: anti-fungal protein AFP2 from radish (Raphanus sativus) (QKLCQRPSGTWSGVCGNNNACKNQCIRLEKARHGSCNYVFPAHKCICYFPC; UniProt P30230 30-80, looked up)",effect on maize pollen tube growth behaviour,maize pollen tube,did not affect
CC(C)C[C@H](NC(=O)[C@H](CS)NC(=O)[C@H](CCCNC(=N)N)NC(=O)CNC(=O)CNC(=O)[C@@H](NC(=O)[C@H](Cc1ccc(O)cc1)NC(=O)CNC(=O)[C@H](CCCCN)NC(=O)CNC(=O)[C@H](CCC(=O)O)NC(=O)[C@H](C)NC(=O)[C@H](CCCNC(=N)N)NC(=O)[C@H](CS)NC(=O)CN)[C@@H](C)O)C(=O)O [ES-c] (H-GCRAEGKGYTGGRCL-OH; N-terminus and C-terminus assumed),maize pollen tube burst,"maize pollen tubes; peptide concentration not stated at this place (100nM, 250nM and 500nM applied), PGM pH 5, 5min after application",29.3±4.2%
same,fungal germination in Fusarium,F. graminearum conidia,19.1±3.8%
same,conidia that did not germinate at all,F. graminearum conidia,Approximately 80%
same,concentration giving complete suppression of conidia germination,F. graminearum conidia,120 µM
same,effect on developed F. graminearum mycelia (24 hpi),[1],breaking/bursting of cell walls and release of vacuoles
same,ROS production in F. graminearum conidia and mycelia,[2],strongly produced ROS
same,ROS production in U. maydis spores,U. maydis spores [3],ROS production was also detected
same,concentration giving complete suppression of spore germination,U. maydis spores [4],120 µM
same,germination of Ustilago spores,U. maydis spores [4],19.1±3.8%
same,spores that did not germinate at all,U. maydis spores [4],Approximately 80%
same,inhibition of germination of Ustilago spores,U. maydis spores [4],80.9±1.0%
CC[C@H](C)[C@H](NC(=O)CNC(=O)[C@H](CC(=O)O)NC(=O)[C@H](CC(C)C)NC(=O)[C@@H](NC(=O)[C@@H](NC(=O)[C@@H]1CCCN1C(=O)[C@H](CO)NC(=O)[C@@H](NC(=O)[C@H](CC(C)C)NC(=O)[C@H](CS)NC(=O)[C@@H](N)CCCNC(=N)N)[C@@H](C)CC)[C@@H](C)CC)[C@@H](C)O)C(=O)N[C@@H](CC(C)C)C(=O)N[C@@H](CS)C(=O)N[C@@H](Cc1ccc(O)cc1)C(=O)O [ES-d] (H-RCLISPITLDGILCY-OH; N-terminus and C-terminus assumed),maize pollen tube burst,"maize pollen tubes; 500nM peptide in PGM pH 5, measured 5min after application, P < 0.001",82.5±5.2%
same,time after application until pollen tubes started to burst,"maize pollen tubes; PGM pH 5, in words",within a few seconds
same,fungal germination in Fusarium,F. graminearum conidia,20.6±2.1%
same,conidia that did not germinate at all,F. graminearum conidia,Approximately 80%
same,concentration giving complete suppression of conidia germination,F. graminearum conidia,120 µM
same,effect on developed F. graminearum mycelia (24 hpi),[1],breaking/bursting of cell walls and release of vacuoles
same,effect on U. maydis spores,U. maydis spores [5],burst of swelling spores and excretion of vacuoles and cell components
same,ROS production in F. graminearum conidia and mycelia,[2],strongly produced ROS
same,ROS production in U. maydis spores,U. maydis spores [3],ROS production was also detected
same,concentration giving complete suppression of spore germination,U. maydis spores [4],120 µM
same,germination of Ustilago spores,U. maydis spores [4],20.6±2.1%
same,spores that did not germinate at all,U. maydis spores [4],Approximately 80%
same,inhibition of germination of Ustilago spores,U. maydis spores [4],78.7±1.0%
